In patent US20260022100A1, “NAV1.8 INHIBITOR” (Wuhan Humanwell Innovative Drug Research and Development …, priority 2022, published 2026):

Legend:
incision pain model rats = test: Incision pain model in rats (Von-Frey mechanical pain threshold); assay type: in vivo, male SD rat; conditions: for Mechanical pain threshold (Mean ± SD), base value before modeling: baseline before modeling
Method: A male SD rat weighing 200-250 g was fixed in a prone position after anesthesia. The lateral hind limb sole of the rat was flattened upwards, and the toes were fixed using an operation adhesive tape. Sterilization was performed. A 0.5 cm position of the plantar heel of the animal was incised with a scalpel towards the toe end to incise the fascia and the skin to make a longitudinal incision of about 1 cm. After the flexor digitorum brevis was lifted by the surgical forceps, the abdomen of the muscle was longitudinally incised with a scalpel without completely cutting off the muscle. The skin was sutured and disinfected. On the second day of modeling, the animals were divided into different groups, 8 animals each group. Different compounds were separately orally administered intragastrically. Mechanical pain thresholds of the animals were detected with Von-Frey fiber filaments at different time points after administration. The specific grouping administration dose and detection time are detailed in Table 4 below.
(§1) The mechanical pain threshold detection method: The pelma of the hind limb to be tested of the test animal was continuously stimulated using the Von-Frey fiber filament to bend the fiber filament, and the foot shrinking reaction of the animal was observed. The tested animals were stimulated one by one according to the sequence of the gram number of the fiber filaments from small to large, and each gram number of the fiber filament was continuously used for stimulation for 5 times. If less than 3 positive reactions were present, the procedure described above was repeated using a larger grade of fiber filament, and if 3 or more positive reactions were present for the first time in the test, the fiber filament was the pain threshold for that animal (3 tests per animal for the average). Fiber filament gram number: 0.6, 1.0, 1.4, 2.0, 4.0, 6.0, 8.0, 10.0, and 15.0; the cut value was 15.0 g.

Nav1.8 ion channel = Nav1.8 ion channel (Homo sapiens (Human), UniProt Q9Y5Y9); test: Inhibitory activity on Nav1.8 ion channel, whole-cell patch-clamp on HEK293/Nav1.8; assay type: cell-based; conditions: HEK293/Nav1.8, whole-cell patch clamp, holding -80 mV, 1 μM TTX
Method: Reagents were purchased from Sigma (St. Louis, MO) except NaOH and KOH for acid-base titration. The final concentrations of the test compounds were all prepared on the day of the test and then dissolved in an extracellular fluid. The extracellular fluid (mM) was NaCl, 137; KCl, 4; CaCl2), 1.8; MgCl2, 1; HEPES, 10; glucose 10; and pH 7.4 (NaOH titration). All test and control compound solutions contained 1 μM TTX. The intracellular fluid (mM) was: aspartic acid, 140; magnesium chloride, 2; ethylene glycol tetraacetic acid (EGTA), 11; and N-2-hydroxyethylpiperazine-N′-2-ethanesulfonic acid (HEPES), 10. The pH was adjusted to 7.4 with cesium hydroxide.
The test compounds were dissolved in dimethylsulfoxide (DMSO) at a concentration of 9 mM. On the day of the test, the compounds were then dissolved in the extracellular fluid and prepared into the required concentration.
The cells were transferred to a perfusion chamber and perfusion was carried out using the extracellular fluid. The intracellular fluid was thawed on the day of the experiment. The electrodes were produced by pulling with PC-10 (Narishige, Japan). Whole-cell patch-clamp recording was carried out. Noise was filtered at one fifth of the sampling frequency. The intracellular fluid with ¼ length of the electrode tube was added into the electrode, and the electrode was installed on a probe. The required Protocol was set, the interface was adjusted to Membrane test, and Stage was adjusted to Bath. A positive pressure was applied in the electrode. The tip of the electrode was contacted with the cell. The three-way valve of the air extractor was adjusted to a three-way state. A negative pressure was then applied to the electrode, so that the electrode and the cell formed a high-resistance seal. Stage was adjusted to Patch, and leak was controlled within −200 pA. A negative pressure was successively applied, so that cell membranes were broken, and a current path was formed. Perfusion was carried out by opening the suction filtration device and the extracellular fluid valve. The cell current was observed, and administration was started when the cell current was stable (at least 3 sweep current curves were overlapped). Administration was performed from low concentration to high concentration. The administration time of each concentration was not less than 2 min, and when the current was stable, the concentration was changed for administration.
For administration of the test samples, perfusion was carried out using a perfusion system utilizing the self gravity. […] During the period, the CV % of all peak current amplitudes should be less than 10% to exclude up and down fluctuations of the initial current. The average of the peak current amplitudes recorded for the last 10 times during the initial recording served as the current peak of the negative control. After the initial current was stable, the test samples were dosed starting from a low concentration until the 10 recorded peak currents were again stable or the peak currents were “constant” after and before administration after continuous administration for 5 min. We defined the following two cases as “stable” or “constant”: 1) if the absolute average of the peak current for 10 consecutive scans exceeded 200 pA and the CV value was less than 10%, 2) or the average of the peak current for 10 consecutive scans was between 200 pA and 50 pA and the CV value was less than 30%. The next detection of higher concentration was then given.
The average of the peak current of the last 10 scans of each concentration was taken as the peak current for that concentration for data analysis. If the stable state was not reached within 5 min, the peak current average of the last 10 scans at that time was used for data analysis as the peak current for that concentration. At the same time, the cells were discarded and no longer used for detection of higher concentration. At least two cells were tested per concentration of the compounds. […]

[1] = Pharmacokinetic assay in mice; assay type: in vivo; conditions: male, ICR, mouse, plasma, oral intragastric administration, 10 mg/kg
Method: Pharmacokinetic assay in mice was performed, wherein the mice used were 3 male ICR mice and fasted overnight. The mice were orally intragastrically dosed with the medicament (10 mg/kg). Blood was collected before administration and at 15 min, 30 min and 1 h, 2 h, 4 h, 6 h, 8 h, and 24 h after administration. Blood samples were centrifuged at 8000 rpm for 6 min at 4° C., and plasma was collected and stored at −20° C. The plasma at each time point was taken, and 3-5 times its amount of an acetonitrile solution containing an internal standard was added for mixing. The mixture was vortexed for 1 min and then centrifuged at 13000 rpm at 4° C. for 10 min. The supernatant was taken, and 3 times its amount of water was added for mixing. A proper amount of the resulting mixture was taken for LC-MS/MS analysis. The major pharmacokinetic parameters were analyzed using a non-compartmental model in the WinNonlin 7.0 software.

[2] = system: spinal nerve-ligated rats; test: Spinal nerve ligation neuropathic pain model in rats (Von-Frey mechanical pain threshold); assay type: in vivo, male SD rat; conditions: SNL rats; for Mechanical pain threshold (Mean ± SD), base value before modeling: baseline before modeling
Source text: A male SD rat weighing 180-220 g was placed on an operating table in a prone position after anesthesia. An incision was made along the spinal column near the hip bone of the animal, and the fascia and muscle were separated. The L5 transverse process was carefully snapped off with a tweezer. The L5 nerve was separated with a glass needle, and the L5 nerve was ligated with 5-0 ligature. The muscle and the skin were sutured and disinfected with iodophor. After 14 days of modeling, the animals were divided into different groups, 10 animals each group. Different compounds were separately orally administered intragastrically. Mechanical pain thresholds of the animals were detected with Von-Frey fiber filaments at different time points after administration. The specific administration dose and detection time are detailed in Table 3 below.
as §1

Row | Compound | Mechanical pain threshold (Mean ± SD), base value before modeling (incision pain model rats; 100 mpk group) | Mechanical pain threshold (Mean ± SD), 1 h after administration (incision pain model rats; 100 mpk oral intragastric) | Mechanical pain threshold (Mean ± SD), 3 h after administration (incision pain model rats; 100 mpk oral intragastric) | Mechanical pain threshold (Mean ± SD), 6 h after administration (incision pain model rats; 100 mpk oral intragastric) | IC50 (Nav1.8 ion channel) | AUC(0-t) [1] | Cmax [1] | Tmax [1] | half-life [1] | Mechanical pain threshold (Mean ± SD), base value before modeling ([2]; 100 mpk group) | Mechanical pain threshold (Mean ± SD), 1 h after administration ([2]; 100 mpk oral intragastric) | Mechanical pain threshold (Mean ± SD), 3 h after administration ([2]; 100 mpk oral intragastric) | Mechanical pain threshold (Mean ± SD), base value before modeling (incision pain model rats; 30 mpk group) | Mechanical pain threshold (Mean ± SD), 1 h after administration (incision pain model rats; 30 mpk oral intragastric) | Mechanical pain threshold (Mean ± SD), 3 h after administration (incision pain model rats; 30 mpk oral intragastric) | Mechanical pain threshold (Mean ± SD), 6 h after administration (incision pain model rats; 30 mpk oral intragastric) | Mechanical pain threshold (Mean ± SD), base value before modeling ([2]; 30 mpk group) | Mechanical pain threshold (Mean ± SD), 1 h after administration ([2]; 30 mpk oral intragastric) | Mechanical pain threshold (Mean ± SD), 3 h after administration ([2]; 30 mpk oral intragastric) | Mechanical pain threshold (Mean ± SD), 6 h after administration ([2]; 30 mpk oral intragastric, 6 h)
1 | O=C(Nc1cnc[n+]([O-])c1)c1cc(Cl)c(Cl)cc1Oc1ccc(OC(F)(F)F)cc1 [Compound I-1, 5-(4,5-Dichloro-2-(4-(trifluoromethoxy)phenoxy)benzamido)pyrimidine 1-oxide] | 12.6 ± 1.7 g | 12.5 ± 1.9 g | 11.4 ± 2.0 g | 8.4 ± 1.2 g | 14 nM | 17300 ng·h/mL | 7370 ng/mL | 0.25 h | 2.74 h | 13.6 ± 1.7 g | 11.0 ± 4.0 g | 11.1 ± 3.7 g |  |  |  |  |  |  |  | 
2 | CC(C)C[C@H](CN)CC(=O)O [Pregabalin, reference compound] |  |  |  |  |  |  |  |  |  |  |  |  | 12.7 ± 1.7 g | 12.4 ± 1.9 g | 11.6 ± 1.1 g | 11.3 ± 1.4 g | 13.6 ± 2.7 g | 13.8 ± 2.3 g | 12.3 ± 2.9 g | 12.1 ± 2.3 g
